Reference: patent publication US6638529B2, “Amide-based cationic lipids” (Genta Incorporated, priority 1995, dated 2003)

How the values were obtained:
C8161 cells [1] = experiment: FITC-oligonucleotide uptake assay (nuclear fluorescence score); format: cell-based, human; set-up: key: 0: No nuclear fluorescence; 1: up to 20% fluorescent nuclei; 2: up to 40% fluorescent nuclei; 3: up to 60% fluorescent nuclei; 4: up to 80% fluorescent nuclei; 5: up to 100% fluorescent nuclei; conditions: lipid:oligomer 9:1 or 6:1 by weight, 4-6 h
SNB-19 cells [2] = experiment: as above; format: cell-based, human; set-up: key: 0: No nuclear fluorescence; 1: up to 20% fluorescent nuclei; 2: up to 40% fluorescent nuclei; 3: up to 60% fluorescent nuclei; 4: up to 80% fluorescent nuclei; 5: up to 100% fluorescent nuclei; conditions: SNB19, lipid:oligomer 9:1 or 6:1 by weight, 4-6 h
RD cells [3] = experiment: as above; format: cell-based, human; set-up: key: 0: No nuclear fluorescence; 1: up to 20% fluorescent nuclei; 2: up to 40% fluorescent nuclei; 3: up to 60% fluorescent nuclei; 4: up to 80% fluorescent nuclei; 5: up to 100% fluorescent nuclei; conditions: lipid:oligomer 9:1 or 6:1 by weight, 4-6 h
COS-7 cells [4] = experiment: Transient transfection of CAT plasmid pG1035 with cationic lipids, CAT activity in lysate; format: cell-based, African green monkey; conditions: for Mean (transient transfection efficiency; CAT activity normalized to total protein): CAT plasmid pG1035 2 μg/mL, lipid 18 μg/mL (9 to 1 lipid to DNA), triplicate; for REL (transient transfection efficiency relative to best lipid in the cell line): CAT plasmid pG1035, 9 to 1 lipid to DNA
Procedure: (§1) Cell lines were plated at 1.5×10^5 cells/well in a 12 well plate format on the day before tranfection. […] This small quantity of ethanol was confirmed to have no adverse effect on any of the cell lines. […] Cell lysates were prepared by rinsing twice in PBS and then were treated with 0.5 mL of 1× Reporter Lysis Buffer (Promega, Madison, Wis.). The lysed cells were pipetted into 1.5 mL tubes and frozen in CO2/EtOH once and thawed. The crude lysate was then clarified by microcentrifugation at 14,000 rpm for 10 minutes to pellet cell debris. The clear supernatant was recovered and assayed directly or stored at -20° C. for assay later. The cell lysates were then assayed for CAT activity and the total protein concentration was determined as described below in Example 7. The CAT activity was normalized to total protein and plotted as shown. This assay was performed generally as follows. First, the following reaction mixture was prepared for each sample: […] Louis, Mo.), 4 mL ^14C-chloramphenicol, 50 nCi/mL (Dupont, Boston, Mass.), and 5 mL mg/mL n-butyryl coenzyme A (Pharmacia, Piscataway, N.J.). […] The original stock CAT was at 7000 Units/mL. […] Approximately […] of reaction mixture was then added to each sample tube, which was then typically incubated for approximately 1 hour in a 37° C. oven. The reaction was terminated by adding […] pristane:mixed xylenes (2:1) (Sigma, St. Louis, Mo.) to each tube. The tubes were then vortexed for 2 minutes and spun for 5 minutes. Approximately […] of the upper phase was transferred to a scintillation vial with 5 mL Scintiverse (Fisher, Pittsburgh, Pa.). The sample was then counted in a scintillation counter (Packard). The plasmid pG1035 was used for transient transfections of COS-7 (ATCC # CRL-1651), SNB-19, C8161 and RD (ATCC # CCL-136) cells. pG1035 consists of a modified CAT (choramphenicol acetyl transferase) gene (named […]) inserted into the eukaryotic vector pRc/CMV (Invitrogen, San Diego, Calif.). […] created by inserting an artificial intron into the wild type CAT gene sequence in a plasmid named pG1036 (also based on pRc/CMV) using the polymerase chain reaction. […] Concentration curve standards were prepared using 6 μL of […] BSA stock solutions and 300 mL of the Coomassie reagent. The assay samples were allowed to sit for approximately 30 minutes before reading the optical absorbance at 570 nm in a microplate reader (Molecular Probes). The cells were assayed for CAT protein as described above.

C8161 cells [5] = experiment: as above; format: cell-based, human; conditions: for Mean (transient transfection efficiency; CAT activity normalized to total protein): CAT plasmid pG1035 2 μg/mL, lipid 18 μg/mL (9 to 1 lipid to DNA), triplicate; for REL (transient transfection efficiency relative to best lipid in the cell line): CAT plasmid pG1035, 9 to 1 lipid to DNA
Procedure: as §1

RD cells [6] = experiment: as above; format: cell-based, human; conditions: for Mean (transient transfection efficiency; CAT activity normalized to total protein): CAT plasmid pG1035 2 μg/mL, lipid 18 μg/mL (9 to 1 lipid to DNA), triplicate; for REL (transient transfection efficiency relative to best lipid in the cell line): CAT plasmid pG1035, 9 to 1 lipid to DNA
Procedure: as §1

SNB-19 cells [7] = experiment: as above; format: cell-based, human; conditions: for Mean (transient transfection efficiency; CAT activity normalized to total protein): CAT plasmid pG1035 2 μg/mL, lipid 18 μg/mL (9 to 1 lipid to DNA), triplicate; for REL (transient transfection efficiency relative to best lipid in the cell line): CAT plasmid pG1035, 9 to 1 lipid to DNA
Procedure: as §1

COS-7 cells [8] = experiment: FITC-oligonucleotide uptake assay (nuclear fluorescence score); format: cell-based, African green monkey; set-up: key: 0: No nuclear fluorescence; 1: up to 20% fluorescent nuclei; 2: up to 40% fluorescent nuclei; 3: up to 60% fluorescent nuclei; 4: up to 80% fluorescent nuclei; 5: up to 100% fluorescent nuclei; conditions: COS7, lipid:oligomer 9:1 or 6:1 by weight, 4-6 h
[9] = FITC oligomer 3498-PS (phosphorothioate) 0.25 micromolar
[10] = FITC oligomer 3498 Chimera 0.25 micromolar
[11] = FITC oligomer 3793-2 alternating (methylphosphonate/diester, 2'-O-methyl) 0.25 micromolar

Compound	Nuclear delivery of oligonucleotide (uptake score) (C8161 cells [1]; [9])	Nuclear delivery of oligonucleotide (uptake score) (C8161 cells [1]; [10])	Nuclear delivery of oligonucleotide (uptake score) (C8161 cells [1]; [11])	Nuclear delivery of oligonucleotide (uptake score) (SNB-19 cells [2]; [9])	Nuclear delivery of oligonucleotide (uptake score) (SNB-19 cells [2]; [10])	Nuclear delivery of oligonucleotide (uptake score) (SNB-19 cells [2]; [11])	Nuclear delivery of oligonucleotide (uptake score) (RD cells [3]; [9])	Nuclear delivery of oligonucleotide (uptake score) (RD cells [3]; [10])	Nuclear delivery of oligonucleotide (uptake score) (RD cells [3]; [11])	Mean (transient transfection efficiency; CAT activity normalized to total protein) (COS-7 cells [4])	REL (transient transfection efficiency relative to best lipid in the cell line) (COS-7 cells [4])	Mean (transient transfection efficiency; CAT activity normalized to total protein) (C8161 cells [5])	REL (transient transfection efficiency relative to best lipid in the cell line) (C8161 cells [5])	Mean (transient transfection efficiency; CAT activity normalized to total protein) (RD cells [6])	REL (transient transfection efficiency relative to best lipid in the cell line) (RD cells [6])	Mean (transient transfection efficiency; CAT activity normalized to total protein) (SNB-19 cells [7])	REL (transient transfection efficiency relative to best lipid in the cell line) (SNB-19 cells [7])	Nuclear delivery of oligonucleotide (uptake score) (COS-7 cells [8]; [9])	Nuclear delivery of oligonucleotide (uptake score) (COS-7 cells [8]; [10])	Nuclear delivery of oligonucleotide (uptake score) (COS-7 cells [8]; [11])
CCCCCCCCCCCCCCCCCC(CCCCCCCCCCCCCCCCC)NC(=O)CNC(=O)CNC(=O)[C@H](CCCNCCCN)NCCCN.O=C(O)C(F)(F)F.O=C(O)C(F)(F)F.O=C(O)C(F)(F)F.O=C(O)C(F)(F)F [Compound 1-10, N^2,N^5-Bis(3-aminopropyl)-L-ornithylglycyl-N-(1-heptadecyloctadecyl)glycinamide, Tetrahydrotrifluoroacetate]	5 (up to 100% fluorescent nuclei)	3 (up to 60% fluorescent nuclei)	0	4 (up to 80% fluorescent nuclei)	4 (up to 80% fluorescent nuclei)	0	5 (up to 100% fluorescent nuclei)	4 (up to 80% fluorescent nuclei)	0	148040	0.87	159578	0.8	124232	0.7	166179	0.88	4 (up to 80% fluorescent nuclei)	3 (up to 60% fluorescent nuclei)	0
CCCCCCCCCCCCCCCCCCN(CCCCCCCCCCCCCCCCCC)C(=O)CC[C@H](NC(=O)[C@H](CCCNCCCN)NCCCN)C(=O)O.Cl.Cl.Cl.Cl [Compound 2-5, N^2-[N^2,N^5-Bis(3-aminopropyl)-L-ornithyl]-N,N-dioctadecyl-L-glutamine, tetrahydrochloride]	3 (up to 60% fluorescent nuclei)	4 (up to 80% fluorescent nuclei)	3 (up to 60% fluorescent nuclei)	3 (up to 60% fluorescent nuclei)	3 (up to 60% fluorescent nuclei)	3 (up to 60% fluorescent nuclei)	3 (up to 60% fluorescent nuclei)	4 (up to 80% fluorescent nuclei)	4 (up to 80% fluorescent nuclei)	55598	0.33	137710	0.69	73921	0.41	103280	0.55	2 (up to 40% fluorescent nuclei)	2 (up to 40% fluorescent nuclei)	1 (up to 20% fluorescent nuclei)
